In ChEMBL document CHEMBL1150679, “Genipatriol, a new cycloartane triterpene from Genipa spruceana” (J Nat Prod, 2003):
Calls of active or inactive are those of the source. No cut-off for these calls is given here.

Test system: Nakaseomyces glabratus
Test: Antimicrobial activity against Candida glabrata assessed as reversal of azole resistance after 24 to 48 hrs
Assay type: functional, organism-based

## C[C@H]1[C@H](C)CC[C@]2(C(=O)O)CC[C@]3(C)C(=CC[C@@H]4[C@@]5(C)CC[C@H](O)C(C)(C)[C@@H]5CC[C@]43C)[C@H]12
  Activity: inactive

## C/C(=C/CC[C@@H](C)[C@H]1CC[C@@]2(C)[C@@H]3CC[C@H]4C(C)(C)[C@@H](O)[C@H](O)C[C@@]45C[C@@]35CC[C@]12C)CO
  Activity: inactive
